Key:
[1] = system: lung cancer cell strain PC9; assay: Cancer cell growth inhibition / cell viability; type: cell-based; settings: after 48 hours of drug administration
oncogene myc = assay: Inhibition of oncogene MYC expression (Western Blot); type: cell-based; settings: FIG. 4
[2] = system: breast cancer cell strain MD231; assay: Cancer cell growth inhibition / cell viability; type: cell-based; settings: after 48 hours of drug administration
[3] = system: lung cancer cell strain A549; assay: Cancer cell growth inhibition / cell viability; type: cell-based; settings: Homo sapiens, after 48 hours of drug administration
PAICS = target: T1, PAICS (Homo sapiens, UniProt P22234); assay: Inhibition of spermidine on PAICS activity (SAICAR accumulation); settings: biochemical enzyme activity experiments and cell biology experiments
T1 sequence (P22234 1-425): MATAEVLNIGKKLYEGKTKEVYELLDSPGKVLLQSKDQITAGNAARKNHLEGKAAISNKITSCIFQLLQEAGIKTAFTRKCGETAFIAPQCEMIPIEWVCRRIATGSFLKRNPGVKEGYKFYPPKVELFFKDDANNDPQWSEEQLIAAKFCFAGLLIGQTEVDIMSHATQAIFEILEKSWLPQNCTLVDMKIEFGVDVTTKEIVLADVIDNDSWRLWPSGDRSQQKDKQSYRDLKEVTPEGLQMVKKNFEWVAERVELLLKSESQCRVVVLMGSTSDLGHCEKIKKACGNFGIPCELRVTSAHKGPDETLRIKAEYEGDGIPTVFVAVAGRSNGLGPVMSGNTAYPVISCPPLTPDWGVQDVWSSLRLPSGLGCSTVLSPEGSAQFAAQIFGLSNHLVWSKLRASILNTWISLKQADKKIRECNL
From the text: The accumulation of toxic compound SAICAR is reduced by inhibiting the activity of PAICS.

[4] = system: lung cancer cell strain H1299; assay: Cancer cell growth inhibition / cell viability; type: cell-based; settings: Homo sapiens, NCI-H1299, after 48 hours of drug administration
[5] = system: breast cancer cell strain MD468; assay: Cancer cell growth inhibition / cell viability; type: cell-based; settings: after 48 hours of drug administration

SMILES: NCCCCNCCCN [spermidine]
- IC50 [1]: 23.4 µM
- expression of oncogene myc (oncogene myc): significantly down-regulated
- IC50 [2]: 1.41 µM
- IC50 [3]: 52.1 µM
- inhibition of the accumulation of SAICAR (PAICS): up to 68.98%
- IC50 [4]: 21.1 µM
- IC50 [5]: 46.1 µM

From US11517541B2, “Applications of spermidine and its derivatives” (GENEHEAL BIOTECHNOLOGY CO., LTD., priority 2017, dated 2022)
